Assay results reported in BigSolDB 2.1.

c1ccc(P(c2ccccc2)c2ccccc2)cc1
Details	solubility (mole fraction)
in acetone, 303.2 K	0.089
in acetone, 308.1 K	0.12
in acetone, 313.4 K	0.14
in acetone, 318.2 K	0.19
in acetone, 323.5 K	0.25
in acetone, 327.8 K	0.33
in acetone, 333.1 K	0.42
in benzene, 303.3 K	0.069
in benzene, 308.6 K	0.095
in benzene, 312.9 K	0.12
in benzene, 318.1 K	0.16
in benzene, 323.2 K	0.22
in benzene, 328.1 K	0.28
in benzene, 333.2 K	0.37
in ethanol, 303.5 K	0.0095
in ethanol, 308.3 K	0.012
in ethanol, 313.3 K	0.016
in ethanol, 318.6 K	0.022
in ethanol, 323.2 K	0.028
in ethanol, 327.9 K	0.038
in ethanol, 333 K	0.05
in isopropanol, 303.1 K	0.0077
in isopropanol, 308.4 K	0.01
in isopropanol, 313.3 K	0.014
in isopropanol, 318.2 K	0.019
in isopropanol, 322.9 K	0.025
in isopropanol, 328.4 K	0.033
in isopropanol, 333.2 K	0.045
in toluene, 302.4 K	0.05
in toluene, 308.2 K	0.07
in toluene, 313.7 K	0.1
in toluene, 318.2 K	0.13
in toluene, 323.3 K	0.18
in toluene, 328.3 K	0.24
in toluene, 333.4 K	0.32
